Earlier results as cited in publication PMC12693416, “From Lipid Regulation to Neuroprotection: Multitarget (Benzo)thiazine Derivatives as Promising Leads” (Molecules, 2025).

Test system: AChE
Conditions: read-out: IC50 against AChE; cited from earlier work

SMILES	IC50
O=C(/C=C/c1ccc(O)c(O)c1)O[C@@H]1C[C@](O)(C(=O)O)C[C@@H](O)[C@H]1O [chlorogenic acid]	~277 µM
COc1cc(C(=O)O)cc(OC)c1O [syringic acid]	~149 µM
